# Measured values reported in US20250205344A1, “2,4-DIOXOTETRAHYDROPYRIMIDINYL DERATIVES AS DEGRONS IN PROTACS” (GLAXOSMITHKLINE INTELLECTUAL PROPERTY DEVELOPMENT LIMITED, priority 2022, published 2025).
# Where a name gives a salt, the structure may show the parent alone.
# Target: T1, Androgen Receptor (Homo sapiens, UniProt P10275, T878A)
# T1 construct: the AR gene was modified, using CRISPR/Cas9 editing, so the expressed AR protein included an 11 amino acid HiBiT tag; endogenous in cells; host or cells: clonal LnCaP-derived line, AR gene edited by CRISPR/Cas9
# T1 sequence (P10275 whole entry T878A): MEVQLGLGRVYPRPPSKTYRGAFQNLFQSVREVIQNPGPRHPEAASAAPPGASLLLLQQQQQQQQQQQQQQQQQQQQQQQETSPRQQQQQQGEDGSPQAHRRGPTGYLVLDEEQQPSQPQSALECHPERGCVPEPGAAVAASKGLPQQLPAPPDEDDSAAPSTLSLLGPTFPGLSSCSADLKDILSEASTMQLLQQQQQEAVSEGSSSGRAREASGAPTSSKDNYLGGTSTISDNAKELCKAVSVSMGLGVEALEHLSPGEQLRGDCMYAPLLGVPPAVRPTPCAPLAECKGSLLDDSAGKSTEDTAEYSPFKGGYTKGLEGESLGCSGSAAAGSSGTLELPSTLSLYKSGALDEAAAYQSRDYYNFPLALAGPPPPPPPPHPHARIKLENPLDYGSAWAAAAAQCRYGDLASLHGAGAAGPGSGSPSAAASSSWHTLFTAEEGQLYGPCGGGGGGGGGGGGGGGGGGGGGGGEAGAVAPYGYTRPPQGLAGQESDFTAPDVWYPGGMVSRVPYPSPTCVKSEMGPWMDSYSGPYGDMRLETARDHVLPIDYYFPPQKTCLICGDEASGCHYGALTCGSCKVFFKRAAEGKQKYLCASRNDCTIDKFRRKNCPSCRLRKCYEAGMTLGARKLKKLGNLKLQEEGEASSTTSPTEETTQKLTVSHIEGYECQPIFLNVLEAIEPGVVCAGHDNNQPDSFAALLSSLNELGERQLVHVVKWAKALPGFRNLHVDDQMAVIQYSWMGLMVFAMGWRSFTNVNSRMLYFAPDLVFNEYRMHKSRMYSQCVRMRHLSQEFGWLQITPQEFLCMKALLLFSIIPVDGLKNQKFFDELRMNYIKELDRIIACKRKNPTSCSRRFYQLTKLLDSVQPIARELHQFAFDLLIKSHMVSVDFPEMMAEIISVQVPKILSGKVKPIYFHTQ
# T1 sequence (Q96SW2 whole entry partner): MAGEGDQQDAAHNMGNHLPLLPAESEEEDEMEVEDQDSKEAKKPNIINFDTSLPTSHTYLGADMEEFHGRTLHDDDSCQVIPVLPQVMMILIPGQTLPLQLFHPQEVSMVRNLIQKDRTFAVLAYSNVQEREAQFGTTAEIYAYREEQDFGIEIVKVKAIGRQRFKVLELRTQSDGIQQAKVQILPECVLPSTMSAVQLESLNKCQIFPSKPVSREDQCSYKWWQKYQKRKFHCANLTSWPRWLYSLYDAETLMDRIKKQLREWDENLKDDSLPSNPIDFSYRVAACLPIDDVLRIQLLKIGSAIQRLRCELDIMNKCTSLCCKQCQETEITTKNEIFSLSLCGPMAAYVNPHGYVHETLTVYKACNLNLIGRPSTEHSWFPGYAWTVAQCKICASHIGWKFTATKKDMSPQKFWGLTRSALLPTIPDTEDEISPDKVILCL
# T1 sequence (Q16531 whole entry partner): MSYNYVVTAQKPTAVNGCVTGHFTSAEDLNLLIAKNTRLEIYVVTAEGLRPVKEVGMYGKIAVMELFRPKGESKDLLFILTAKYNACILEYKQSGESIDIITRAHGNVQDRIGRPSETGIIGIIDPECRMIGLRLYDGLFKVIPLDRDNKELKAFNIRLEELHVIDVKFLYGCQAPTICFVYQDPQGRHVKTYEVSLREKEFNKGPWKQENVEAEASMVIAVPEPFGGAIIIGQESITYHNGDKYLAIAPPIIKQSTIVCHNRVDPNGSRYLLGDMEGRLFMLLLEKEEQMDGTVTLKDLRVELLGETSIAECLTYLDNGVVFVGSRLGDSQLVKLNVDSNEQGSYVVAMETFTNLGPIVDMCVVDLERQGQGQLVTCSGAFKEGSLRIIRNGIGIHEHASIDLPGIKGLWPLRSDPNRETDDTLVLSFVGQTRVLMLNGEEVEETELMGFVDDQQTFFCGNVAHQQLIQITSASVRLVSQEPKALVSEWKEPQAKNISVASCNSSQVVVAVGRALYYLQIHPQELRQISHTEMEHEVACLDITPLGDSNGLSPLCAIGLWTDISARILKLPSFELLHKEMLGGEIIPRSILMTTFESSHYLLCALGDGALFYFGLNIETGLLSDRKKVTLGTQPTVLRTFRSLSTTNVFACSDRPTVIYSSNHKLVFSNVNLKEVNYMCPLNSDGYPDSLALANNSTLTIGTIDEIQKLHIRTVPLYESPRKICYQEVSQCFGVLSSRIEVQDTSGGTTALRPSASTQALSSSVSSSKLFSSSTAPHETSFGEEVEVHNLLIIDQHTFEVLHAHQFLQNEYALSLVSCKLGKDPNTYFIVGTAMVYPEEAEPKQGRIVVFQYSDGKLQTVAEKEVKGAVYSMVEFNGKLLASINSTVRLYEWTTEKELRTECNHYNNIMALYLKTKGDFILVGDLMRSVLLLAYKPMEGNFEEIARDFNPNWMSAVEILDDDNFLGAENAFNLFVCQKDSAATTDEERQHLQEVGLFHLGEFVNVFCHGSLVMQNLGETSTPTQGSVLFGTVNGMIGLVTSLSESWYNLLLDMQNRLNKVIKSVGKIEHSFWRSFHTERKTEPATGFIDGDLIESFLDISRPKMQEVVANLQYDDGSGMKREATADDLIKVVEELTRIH
# Test: Androgen Receptor Degradation Assay (Nano-Glo HiBiT)
# Assay type: cell-based
# Details: LNCaP, 18 h, HiBiT-tagged AR in human LnCaP cells, read-out: mean asymptote max
# Procedure, shortened: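 LnCaP cells with CRISPR-knocked-in N-terminal HiBiT-tagged AR (10,000/well) treated 18 h at 37 °C with PROTACs over 11 threefold concentrations; lytic HiBiT luminescence normalised to DMSO (0%) and cell-free (100%) controls. Relative DC50 = 4-parameter fit inflection; absolute DC50 = 50% degradation interpolation; Dmax = maximum observed degradation.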
compound,measurement,value
"N#Cc1ccc(O[C@H]2CC[C@H](NC(=O)c3ccc(N4CC(CN5CCC(n6ncc7c(N8CCC(=O)NC8=O)cccc76)CC5)C4)nn3)CC2)cc1Cl [EAR154, N-((1r,4r)-4-(3-Chloro-4-cyanophenoxy)cyclohexyl)-6-(3-((4-(4-(2,4-dioxotetrahydropyrimidin-1(2H)-yl)-1H-indazol-1-yl)piperidin-1-yl)methyl)azetidin-1-yl)pyridazine-3-carboxamide, formic acid salt]",Dmax,≥ 50%
"N#Cc1ccc(O[C@H]2CC[C@H](NC(=O)c3ccc(N4CCC(CN5CC[C@@H](n6ccc7c(N8CCC(=O)NC8=O)cccc76)[C@@H](F)C5)CC4)nn3)CC2)cc1Cl [EAR155, N-((1r,4r)-4-(3-Chloro-4-cyanophenoxy)cyclohexyl)-6-(4-(((3S,4R)-4-(4-(2,4-dioxotetrahydropyrimidin-1(2H)-yl)-1H-indol-1-yl)-3-fluoropiperidin-1-yl)methyl)piperidin-1-yl)pyridazine-3-carboxamide, hydrochloride]",Dmax,≥ 50%
"N#Cc1ccc(O[C@H]2CC[C@H](NC(=O)c3ccc(N4CCC(CN5CC[C@H](n6ccc7c(N8CCC(=O)NC8=O)cccc76)[C@H](F)C5)CC4)nn3)CC2)cc1Cl [EAR156, N-((1r,4r)-4-(3-Chloro-4-cyanophenoxy)cyclohexyl)-6-(4-(((3R,4S)-4-(4-(2,4-dioxotetrahydropyrimidin-1(2H)-yl)-1H-indol-1-yl)-3-fluoropiperidin-1-yl)methyl)piperidin-1-yl)pyridazine-3-carboxamide, hydrochloride]",Dmax,≥ 50%
"CN(c1ccc(C#N)c(Cl)c1)[C@H]1CC[C@H](NC(=O)c2ccc(N3CCC(CN4CCC(n5ccc6c(N7CCC(=O)NC7=O)cccc65)CC4)CC3)nn2)CC1 [EAR157, N-((1r,4r)-4-((3-Chloro-4-cyanophenyl)(methyl)amino)cyclohexyl)-6-(4-((4-(4-(2,4-dioxotetrahydropyrimidin-1(2H)-yl)-1H-indol-1-yl)piperidin-1-yl)methyl)piperidin-1-yl)pyridazine-3-carboxamide]",Dmax,≥ 50%
"N#Cc1ccc(O[C@H]2CC[C@H](NC(=O)c3ccc(N4CCN(CC(=O)N5CCC(n6ncc7c(N8CCC(=O)NC8=O)cccc76)CC5)CC4)nn3)CC2)cc1Cl [EAR158, N-((1r,4r)-4-(3-Chloro-4-cyanophenoxy)cyclohexyl)-6-(4-(2-(4-(4-(2,4-dioxotetrahydropyrimidin-1(2H)-yl)-1H-indazol-1-yl)piperidin-1-yl)-2-oxoethyl)piperazin-1-yl)pyridazine-3-carboxamide]",Dmax,≥ 50%
"N#Cc1ccc(O[C@H]2CC[C@H](NC(=O)c3ccc(N4CCC(CN5CCC[C@@](F)(Cn6ccc7c(N8CCC(=O)NC8=O)cccc76)C5)CC4)nn3)CC2)cc1Cl [EAR159, N-((1r,4r)-4-(3-Chloro-4-cyanophenoxy)cyclohexyl)-6-(4-(((S)-3-((4-(2,4-dioxotetrahydropyrimidin-1(2H)-yl)-1H-indol-1-yl)methyl)-3-fluoropiperidin-1-yl)methyl)piperidin-1-yl)pyridazine-3-carboxamide]",Dmax,≥ 50%
"N#Cc1ccc(O[C@H]2CC[C@H](NC(=O)c3ccc(N4CCC(CN5CCC(n6ncc7c(N8CCC(=O)NC8=O)cc(C(F)(F)F)cc76)CC5)CC4)nn3)CC2)cc1Cl [EAR161, N-((1r,4r)-4-(3-Chloro-4-cyanophenoxy)cyclohexyl)-6-(4-((4-(4-(2,4-dioxotetrahydropyrimidin-1(2H)-yl)-6-(trifluoromethyl)-1H-indazol-1-yl)piperidin-1-yl)methyl)piperidin-1-yl)pyridazine-3-carboxamide]",Dmax,≥ 50%
"C[C@@H]1CN(c2ccc(C#N)c(Cl)c2)[C@@H](C)CN1C(=O)c1ccc(OCCCCCN2CCC(n3ncc4c(N5CCC(=O)NC5=O)cncc43)CC2)nc1 [EAR164, 2-Chloro-4-((2S,5R)-4-(6-((5-(4-(4-(2,4-dioxotetrahydropyrimidin-1(2H)-yl)-1H-pyrazolo[3,4-c]pyridin-1-yl)piperidin-1-yl)pentyl)oxy)nicotinoyl)-2,5-dimethylpiperazin-1-yl)benzonitrile]",Dmax,≥ 50%
"C[C@@H]1CN(c2ccc(C#N)c(Cl)c2)[C@@H](C)CN1C(=O)c1ccc(OCCCCCN2CCC(n3ccc4c(N5CCC(=O)NC5=O)cncc43)CC2)nc1 [EAR165, 2-Chloro-4-((2S,5R)-4-(6-((5-(4-(4-(2,4-dioxotetrahydropyrimidin-1(2H)-yl)-1H-pyrrolo[2,3-c]pyridin-1-yl)piperidin-1-yl)pentyl)oxy)nicotinoyl)-2,5-dimethylpiperazin-1-yl)benzonitrile]",Dmax,≥ 50%
"N#Cc1ccc(O[C@H]2CC[C@H](NC(=O)c3ccc(C4CCN(CC(=O)N5CCC(n6ncc7c(N8CCC(=O)NC8=O)cccc76)CC5)CC4)nn3)CC2)cc1Cl [EAR167, N-((1r,4r)-4-(3-Chloro-4-cyanophenoxy)cyclohexyl)-6-(1-(2-(4-(4-(2,4-dioxotetrahydropyrimidin-1(2H)-yl)-1H-indazol-1-yl)piperidin-1-yl)-2-oxoethyl)piperidin-4-yl)pyridazine-3-carboxamide]",Dmax,≥ 50%
"N#Cc1ccc(O[C@H]2CC[C@H](NC(=O)c3ccc(N4CCC(CN5CCC(F)(Cn6ccc7c(N8CCC(=O)NC8=O)cccc76)CC5)CC4)nn3)CC2)cc1Cl [EAR168, N-((1r,4r)-4-(3-Chloro-4-cyanophenoxy)cyclohexyl)-6-(4-((4-((4-(2,4-dioxotetrahydropyrimidin-1(2H)-yl)-1H-indol-1-yl)methyl)-4-fluoropiperidin-1-yl)methyl)piperidin-1-yl)pyridazine-3-carboxamide]",Dmax,≥ 50%
"N#Cc1ccc(O[C@H]2CC[C@H](NC(=O)c3ccc(N4CCC(CN5CCC(n6ccc7c(N8CCC(=O)NC8=O)cccc76)CC5)CC4)cc3)CC2)cc1Cl [EAR169, N-((1r,4r)-4-(3-chloro-4-cyanophenoxy)cyclohexyl)-4-(4-((4-(4-(2,4-dioxotetrahydropyrimidin-1(2H)-yl)-1H-indol-1-yl)piperidin-1-yl)methyl)piperidin-1-yl)benzamide]",Dmax,≥ 50%
"N#Cc1ccc(O[C@H]2CC[C@H](NC(=O)c3ccc(N4CCC(CN5CCC(n6ccc7c(N8CCC(=O)NC8=O)c(F)ccc76)CC5)CC4)nn3)CC2)cc1Cl [EAR170, N-((1r,4r)-4-(3-Chloro-4-cyanophenoxy)cyclohexyl)-6-(4-((4-(4-(2,4-dioxotetrahydropyrimidin-1(2H)-yl)-5-fluoro-1H-indol-1-yl)piperidin-1-yl)methyl)piperidin-1-yl)pyridazine-3-carboxamide, hydrochloride]",Dmax,≥ 50%
"N#Cc1ccc(O[C@H]2CC[C@H](NC(=O)c3ccc(N4CCC(CN5CC[C@H](n6ccc7c(N8CCC(=O)NC8=O)cccc76)C5)CC4)nn3)CC2)cc1Cl [EAR171, N-((1r,4r)-4-(3-Chloro-4-cyanophenoxy)cyclohexyl)-6-(4-(((R)-3-(4-(2,4-dioxotetrahydropyrimidin-1(2H)-yl)-1H-indol-1-yl)pyrrolidin-1-yl)methyl)piperidin-1-yl)pyridazine-3-carboxamide, hydrochloride]",Dmax,≥ 50%
"N#Cc1ccc(O[C@H]2CC[C@H](NC(=O)c3ccc(N4CCC(CN5CC[C@@H](n6ccc7c(N8CCC(=O)NC8=O)cccc76)C5)CC4)nn3)CC2)cc1Cl [EAR172, N-((1r,4r)-4-(3-Chloro-4-cyanophenoxy)cyclohexyl)-6-(4-(((S)-3-(4-(2,4-dioxotetrahydropyrimidin-1(2H)-yl)-1H-indol-1-yl)pyrrolidin-1-yl)methyl)piperidin-1-yl)pyridazine-3-carboxamide, hydrochloride]",Dmax,≥ 50%
"N#Cc1ccc(O[C@H]2CC[C@H](NC(=O)c3ccc(N4CCC(CN5CC6(CC(n7ccc8c(N9CCC(=O)NC9=O)cccc87)C6)C5)CC4)nn3)CC2)cc1Cl [EAR173, N-((1r,4r)-4-(3-Chloro-4-cyanophenoxy)cyclohexyl)-6-(4-((6-(4-(2,4-dioxotetrahydropyrimidin-1(2H)-yl)-1H-indol-1-yl)-2-azaspiro[3.3]heptan-2-yl)methyl)piperidin-1-yl)pyridazine-3-carboxamide]",Dmax,≥ 50%
"C[C@@H]1CN(c2ccc(C#N)c(Cl)c2)[C@@H](C)CN1C(=O)c1ccc(OCCN2CCC(n3ncc4c(N5CCC(=O)NC5=O)cncc43)CC2)nc1 [EAR174, 2-Chloro-4-((2S,5R)-4-(6-(2-(4-(4-(2,4-dioxotetrahydropyrimidin-1(2H)-yl)-1H-pyrazolo[3,4-c]pyridin-1-yl)piperidin-1-yl)ethoxy)nicotinoyl)-2,5-dimethylpiperazin-1-yl)benzonitrile]",Dmax,≥ 50%
"N#Cc1ccc(O[C@H]2CC[C@H](NC(=O)c3ccc(N4CCC(CN5CCC(n6ccc7c(N8CCC(=O)NC8=O)nc(Cl)nc76)CC5)CC4)nn3)CC2)cc1Cl [EAR175, 6-(4-((4-(2-Chloro-4-(2,4-dioxotetrahydropyrimidin-1(2H)-yl)-7H-pyrrolo[2,3-d]pyrimidin-7-yl)piperidin-1-yl)methyl)piperidin-1-yl)-N-((1r,4r)-4-(3-chloro-4-cyanophenoxy)cyclohexyl)pyridazine-3-carboxamide]",Dmax,≥ 50%
"N#Cc1ccc(O[C@H]2CC[C@H](NC(=O)c3ccc(N4CCC(CN5CCC(n6ccc7c(N8CCC(=O)NC8=O)cc(C(F)(F)F)cc76)CC5)CC4)nn3)CC2)cc1Cl [EAR176, N-((1r,4r)-4-(3-chloro-4-cyanophenoxy)cyclohexyl)-6-(4-((4-(4-(2,4-dioxotetrahydropyrimidin-1(2H)-yl)-6-(trifluoromethyl)-1H-indol-1-yl)piperidin-1-yl)methyl)piperidin-1-yl)pyridazine-3-carboxamide]",Dmax,≥ 50%
"N#Cc1ccc(O[C@H]2CC[C@H](NC(=O)c3ccc(N4CCC(CN5CCC(c6ncc7c(N8CCC(=O)NC8=O)cccn67)CC5)CC4)nn3)CC2)cc1Cl [EAR177, N-((1r,4r)-4-(3-Chloro-4-cyanophenoxy)cyclohexyl)-6-(4-((4-(8-(2,4-dioxotetrahydropyrimidin-1(2H)-yl)imidazo[1,5-a]pyridin-3-yl)piperidin-1-yl)methyl)piperidin-1-yl)pyridazine-3-carboxamide]",Dmax,≥ 50%
